Data as given in article PMC7797697 (Theranostics, 2021).

What was measured:
[1] = system: Gαq, PLCβ3, PMCA1 and PMCA4b in MDA-MB-231 cells; assay: Expression of calcium influx and efflux markers (Western blot, RT-qPCR); type: cell-based, human
Procedure: Reverse transcription was performed using the RevertAid First Strand cDNA Synthesis Kit ([…]) according to the manufacturer's instructions. The primers for the detection of target mRNA are shown in Table S2. β-actin was used as an internal reference. The relative expression of target genes was calculated by the 2^-ΔΔCt method.

[2] = system: MDA-MB-231, T-47D, and primary breast tumor cells; assay: Colony formation assay; type: cell-based, human; conditions: crystal violet staining
Procedure: The colony-formation ability of MDA-MB-231 and T-47D cells were measured by the clonogenic assay. […] After treatment, cells were digested and suspended in culture medium at a density of 5 × 10^3 cells/ml. Cells (2,000 cells per well) were seeded into 6-well plates and cultured for two weeks. The, cells were fixed with 4% formaldehyde and washed with phosphate-buffered saline (PBS) and stained with crystal violet for half an hour. Images of colonies were captured using a light microscope.

histone deacetylase = assay: Western blot of acetylated histone H3 and acetylated α-tubulin; type: cell-based, human; conditions: MDA-MB-231 cells, 100 or 200 nM, 24-72 h
Procedure: Total protein was assessed by sodium dodecyl sulfate-polyacrylamide gel electrophoresis using 10% or 15% gels, followed by immunoblotting with the following antibodies. Anti-glyceraldehyde 3-phosphate dehydrogenase (GAPDH) antibody (AC002) was purchased from ABclonal Technology (Woburn, MA, USA); anti-PLCβ3 antibody (14247) was purchased from Cell Signaling Technology (Danvers, MA, USA); anti-β-actin antibody (ab8226) and anti-histone H3 antibody (ab1791) were purchased from Abcam (Cambridge, UK); anti-ace tubulin antibody (66200-1-lg) was purchased from Proteintech Group (Rosemont, IL, USA); anti-γ-catenin antibody was purchased from BD Biosciences (Franklin Lakes, NJ, USA). The GAPDH and β-actin content were analyzed as the loading control.

MDA-MB-231 cells = assay: TUNEL assay; type: cell-based, human; conditions: compared to DMSO treatment
Text: Apoptosis was detected using a Cell Death Detection Fluorescein Kit for TUNEL assay (RiboBio, Guangzhou, China) according to the manufacturer's instructions. […] Signals were detected by fluorescence microscopy. Non-apoptotic cells were visualized under a DAPI (4′,6-diamidino-2-phenylindole) filter.

MDA-MB-231 xenografts = assay: MDA-MB-231 xenograft anti-tumor activity; type: in vivo, nude mice; conditions: i.v., 50 mg/kg
Procedure: MDA-MB-231 (5 × 10^6 cells) were inoculated into the left abdominal mammary fat pad of 6-week-old female nude mice, and tumor growth was monitored. […] After four weeks of treatment, all mice were sacrificed according to ethical guidelines. Tumors were excised and analyzed. Tumor volume was measured using a Vernier caliper and calculated according to the following formula: π/6 × length × width^2. All animal handling and procedures were approved by the Capital Medical University Institutional Animal Care. Tumor and adjacent tissues were rapidly fixed in 4% paraformaldehyde (Sigma-Aldrich) for at least 24 h and embedded in paraffin for microscopic examination. From the prepared paraffin blocks, 5-μm thick sections were cut and stained with hematoxylin and eosin (H&E) for light microscopic observation. Sections were processed as per standard protocols using 3,3'-diaminobenzidine (DAB) staining. All human and mouse tissues were collected according to protocols approved by the Ethics Committee of Capital Medical University, and informed consent was obtained from all patients.

[3] = system: MDA-MB-231, T-47D, and primary breast tumor cells; assay: Wound-healing assay; type: cell-based, human; conditions: compared with DMSO treatment, P < 0.05
Procedure: Tumor cell migration was determined by the wound healing assay. […] After treatment, a straight scratch was made onto the cell monolayer using a pipette tip. The cells were washed with PBS three times to remove the floating cells, and the cells were cultured in serum-free medium for 24 h. Cell wound edges were captured using a light microscope.

MEF = assay: CCK8 assay IC50; type: cell-based, mouse; conditions: Mus musculus, normal cells, 72 h
Text: HeLa, MCF-7 and MDA-MB-231 cell lines were purchased from the American Type Culture Collection. MCF-10A, T-47D, PANC-1, A549, HCT-15, Caco-2, SMMC-7721, SH-SY5Y, HUVEC and PC-3 cell lines were obtained from the Chinese Academy of Medical Sciences. MEF was isolated from pregnant mice at 14‒16 days of pregnancy. Primary breast cancer cells were isolated from breast cancer patients. All media including Dulbecco Modified Eagle Medium (DMEM), RPMI 1640 Medium and DMEM/Nutrient Mixture F-12 were supplemented with 10% fetal bovine serum (FBS), 100 units/mL penicillin, and […] streptomycin (Gibco, Waltham, MA, USA). Cells were cultured in a humidified incubator equilibrated with 5% CO2 at 37 °C. Cells were treated for 24-72 h in adherent conditions with compounds from an epigenetic small molecule inhibitor library (L1200, Topscience, Shanghai, China).
(§1) Cell viability was then detected using a CCK8 assay (MedChemExpress, USA) according to the manufacturer's instructions.
Statistical analyses of all data were performed using GraphPad Prism (version 8.0, Graph Pad Software Inc., San Diego, CA, USA). All the data were analyzed by Student's t-test or one-way ANOVA. The Z-Score was chosen to evaluate the results and experimental deviation. Quantitative data are presented as the mean ± SD. […] IC50 was calculated using a four-parameter fit with variable slope in GraphPad Prism.

RGS2 promoter = assay: qChIP of H3 acetylation; type: cell-based; conditions: MDA-MB-231, T-47D and 4T1 cells
Procedure: Briefly, the cells were cross-linked with 1% formaldehyde, sonicated, pre-cleared, and incubated with 4 μg of Ace-H3 antibody or IgG, which was followed by the addition of Dynabeads Protein G. Next, the beads were washed with high- and low-salt-concentration buffers, and DNA was eluted and purified using the QIAquick PCR Purification Kit. The amount of the DNA template was analyzed by qPCR using primers specific for five promoter regions.

SMMC-7721 = assay: CCK8 assay IC50; type: cell-based; conditions: Homo sapiens, SMMC-7721, liver cancer, 72 h
Procedure: as §1
(§2) Statistical analyses of all data were performed using GraphPad Prism (version 8.0, Graph Pad Software Inc., San Diego, CA, USA). All the data were analyzed by Student's t-test or one-way ANOVA. The Z-Score was chosen to evaluate the results and experimental deviation. Quantitative data are presented as the mean ± SD. The asterisk (*) denotes statistically significant difference (P < 0.05). IC50 was calculated using a four-parameter fit with variable slope in GraphPad Prism.

PC-3 = assay: CCK8 assay IC50; type: cell-based; conditions: Homo sapiens, PC-3, prostatic cancer, 72 h
Procedure: as §1, §2

HeLa = assay: CCK8 assay IC50; type: cell-based; conditions: Homo sapiens, cervical cancer, 72 h
Procedure: as §1, §2

PANC-1 = assay: CCK8 assay IC50; type: cell-based; conditions: Homo sapiens, PANC-1, pancreatic cancer, 72 h
Procedure: as §1, §2

MCF-7 = assay: CCK8 assay IC50; type: cell-based; conditions: Homo sapiens, MCF7; MCF-7, 72 h, CCK8, value of the text
Procedure: as §1, §2

SH-SY5Y = assay: CCK8 assay IC50; type: cell-based; conditions: Homo sapiens, neuroblastoma, 72 h
Procedure: as §1, §2

HCT-15 = assay: CCK8 assay IC50; type: cell-based; conditions: Homo sapiens, HCT-15, colon cancer, 72 h
Procedure: as §1, §2

T-47D = assay: CCK8 assay IC50; type: cell-based; conditions: Homo sapiens, T47D, breast cancer, 72 h
Procedure: as §1, §2

A549 = assay: CCK8 assay IC50; type: cell-based; conditions: Homo sapiens, A549, lung cancer, 72 h
Procedure: as §1, §2

Caco-2 = assay: CCK8 assay IC50; type: cell-based; conditions: Homo sapiens, Caco-2, colon cancer, 72 h
Procedure: as §1, §2

- IC50 (SMMC-7721): 12000 nM
- IC50 (PC-3): 1220 nM
- IC50 (HeLa): 1820 nM
- IC50 (PANC-1): 3000 nM
- IC50 (MCF-7): 896 nM
- IC50 (SH-SY5Y): 6000 nM
- IC50 (HCT-15): 33000 nM
- IC50 (T-47D): 2630 nM
- IC50 (A549): 1160 nM
- IC50 (Caco-2): 2000 nM
Structure (SMILES): CN(C)Cc1c(C(=O)NCCOc2ccc(C(=O)NO)cc2)oc2ccccc12 [PCI-24781]
- expression levels of PMCA1 and PMCA4b ([1]; MDA-MB-231, RT-qPCR): not affected
- expression levels of Gαq and PLCβ3 ([1]; MDA-MB-231, Western blot and RT-qPCR): significantly decreased
- colony formation [2]: decreased colony formation
- acetylated histone H3 and acetylated α-tubulin levels (histone deacetylase): time-dependent and dose-dependent accumulation of acetylated histone H3 (H3) and acetylated α-tubulin
- apoptosis (TUNEL) (MDA-MB-231 cells): higher rate of apoptosis
- Ki-67 staining of tumor tissues (MDA-MB-231 xenografts): inhibited tumor proliferation
- tumor growth inhibition (MDA-MB-231 xenografts; every other day for four weeks, compared to control group, P < 0.0001): 74.6%
- RGS2 IHC staining in tumor tissues (MDA-MB-231 xenografts; versus control group): more abundant and more intensely stained
- wound closure (cell migration) [3]: significant delay
- IC50 (MEF): 15000 nM
- H3 acetylation at RGS2 promoter regions (qChIP) (RGS2 promoter): strong binding to RGS2 #2 and #3 promoter regions of H3 acetylation
